Measurements taken from patent US20230127559A1, “PEPTIDE ANALOGS AND USE OF SAME IN TREATING DISEASES, DISORDERS OR CONDITIONS ASSOCIATED WITH MUTANT P53 PROTEIN” (YEDA RESEARCH AND DEVELOPMENT CO. LTD., priority 2020, published 2023).
Where two headings read alike, the source gives them in different places. Where a SMILES comes first, the peptide text is derived from it. Bridges are numbered along the chain shown (N, C = ends). [ ]: non-standard residue; d: D form. The star is where a group is joined. Stearoyl = CCCCCCCCCCCCCCCCCC(=O)*; Myristoyl = CCCCCCCCCCCCCC(=O)*; Dab = NCC[C@H](N)C(=O)O; Dmp = di-methyl proline

Legend:
[1] = test system: MIA PaCa-2 (pancreatic carcinoma) cells, p53R248W; assay type: cell-based
Method: (§1) Cells were cultured in 96 wells plates with 2500-4000 cells/well. Serial dilutions of different peptides were added and the plates incubated for additional 48 h at 37° C. Then medium was removed and cell viability was determined by staining the cells with crystal violet (0.05%) in methanol/PBS (1:5, v/v), for 10 min, followed by 3 washes with PBS. 10% acetic acid was added to each well for 10 min. OD was determined at 595 nm.
(§2) The IC50 tables presented in FIGS. 17-20 are from several representative experiments performed on cell lines expressing several p53 hotspot mutations, as well as control non-transformed cells: […]

[2] = test system: PANC1 (pancreatic carcinoma) cells, p53R273H; assay type: cell-based
Method: as §1, §2

[3] = test system: SW-480 (colon carcinoma) cells, p53R273H, P309S; assay type: cell-based
Method: as §1, §2

[4] = test system: WI38 (non-transformed fibroblasts) cells, wtp53; assay type: cell-based
Method: as §1, §2

[5] = test system: panel of cell lines expressing mutp53; assay type: cell-based
Method: as §1
(§3) The IC50 tables presented in FIGS. 17-20 are from several representative experiments performed on cell lines expressing several p53 hotspot mutations, as well as control non-transformed cells:
Proline residue position—Based on alanine scanning and molecular dynamics analyses, it is believed that the proline residue at the 6th position from the N-terminal is critical for the peptide's 3D structure and provides some rigidity required for peptide binding and activity. Therefore, it was hypothesized that a change in orientation or tetrahedral angle might increase the affinity of the peptide for p53. Six new peptides were synthesized replacing this proline residue with proline analogs (pCAPs 708-712, and pCAP-716, SEQ ID NOS: 6-10 and 14, respectively). This set of peptides was tested for activity on a panel of cell lines expressing mutp53, and compared it to pCAP-674 (SEQ ID NO: 27) and to the scrambled sequence peptides pCAP-721 (SEQ ID NO: 19) and pCAP-722 (SEQ ID NO: 20).

[6] = Pharmacokinetic profile, LC-MS of peptide concentration in plasma; assay type: in vivo, mice
Method: FIG. 21 depicts PK profile for pCAP-724 (SEQ ID NO:22). LC-MS analysis of peptide concentration in the plasma of injected mice. Each point represents an average reading from 3 mice. Shown are mean plasma concentrations (mpk) of the peptide, following administration either intravenously at 1 mg/kg (IV) or subcutaneously at 5 mg/kg (SC).
Each point represents the average from 3 mice. When administered subcutaneously into mice, pCAP-724 levels reach a maximal concentration after 2 h and a show a half-life (T1/2) of about 10 h. […] From the PK study, it is estimated that a continuous long-acting administration of 20 mg/kg/day of pCAP-724 (SEQ ID NO: 22) will yield a steady state concentration in the blood of about 7-10 μM.

[7] = test system: RXF-393 renal cell carcinoma (RCC) cell line, endogenously expressing p53R175H; experiment: RXF-393 luciferase xenograft model, tumor growth by IVIS; assay type: in vivo, athymic Nude-Foxn1nu mice; details: for tumor growth, average IVIS signal (in words): subcutaneous injections 20 mg/Kg, 2 days a week
Source text: To investigate the efficacy of the lead peptides in vivo, a representative cancer cell line-based xenograft model was employed. The selection of the in vivo model was based on the peptide/cell line combination that yielded the strongest effects in culture: human renal carcinoma RXF-393 cells. The peptide analog pCAP-724 (SEQ ID NO: 22), administered by subcutaneous injections and sustained subcutaneous release, was compared to the control scrambled peptide pCAP-722 (SEQ ID NO: 20). Tumor growth was monitored by luciferase activity, measured in an IVIS200® Spectrum system that combines 2D optical and 3D optical tomography in one platform. The system uses leading optical technology for preclinical imaging research and development, ideal for non-invasive longitudinal monitoring of disease progression in living animals
The RXF-393 renal cell carcinoma (RCC) cell line, endogenously expressing p53R175H, and stably expressing Luciferase was utilized. • 1. 0.75×10^6 cells in 50% HBSS 50% Cultrex (1000) were injected subcutaneously, into both hips of athymic Nude-Foxn1nu mice (6 weeks old). • 2. Tumor growth over time was measured by live imaging, using the […] system. Exposure time was calibrated to 20 sec and peak luminescence values were taken for each tumor. • 3. 21 and 24 days after injection of cells, when tumors reached visible size (50-100 mm^3) and an average IVIS signal of 10^7 (100-fold over threshold), the mice were randomly divided into several groups (5 or 6 mice per each group), according to the mode of administration and peptides: • Subcutaneous injections, performed 2 days a week for 3-4 weeks (20 mg/Kg). Two injections will be given for each day of treatment 16 h interval to allow effective level of peptide for 24 h. […]
• 4. Tumor growth over time was measured by live imaging, twice a week. The experiment was conducted until tumors reached the maximal allowed size of 1 cm^3, at which time mice were sacrificed, tumors extracted, measured, photographed, and weighed.

[8] = test system: RXF-393 (renal carcinoma) cells, p53R175H; assay type: cell-based, human
Method: as §1, §3
Fatty acid position. Lead peptides were modified with N-terminal myristic acid to enable the penetration of peptides across the cell membrane. Although myristic acid is usually the default choice for cell permeability, additional options were explored of longer fatty acids and to examine the effect on peptide efficacy in terms of cancer cell killing. A standard crystal violet viability test was performed on human renal carcinoma RXF-393 cells, comparing the original pCAP-553, which has myristic acid (C14), with 4 derivative peptides modified with longer fatty acid chains: palmitic (C16), stearic (C18), […] (C20) and behenic (C22).

[9] = test system: PC9 (lung carcinoma) cells, p53R248Q; assay type: cell-based
Method: as §1, §2

[10] = Solubility at physiological pH; assay type: physicochemical

In the case of CCCCCCCCCCCCCCCCCC(=O)N[C@@H](CCCNC(=N)N)C(=O)N[C@@H](CCCNC(=N)N)C(=O)N[C@@H](Cc1c[nH]cn1)C(=O)N[C@@H](CO)C(=O)N[C@@H](C(=O)N1CCC[C@@H]1C(=O)N[C@@H](CCN)C(=O)N1CCC[C@H]1C(=O)N[C@@H](CC(=O)O)C(=O)NCC(=O)N[C@@H](CCC(=O)O)C(=O)N[C@@H](C)C(=O)O)C(C)C [pCAP-720, str-RRHSvp(Dab)PDGEA] (Stearoyl-RRHS[dV][dP][Dab]PDGEA-OH; C-terminus assumed), the IC50 ([1]; 48 h) is reported as 300 nM, the IC50 ([2]; 48 h) is reported as 1240 nM and the IC50 ([3]; 48 h) is reported as 1200 nM. The IC50 ([4]; 48 h) was 32000 nM and the “activity in viability assays compared with other peptides (in words)” value [5] was “comparable activity to pCAP-717”.

Work on CCCCCCCCCCCCCCCCCC(=O)N[C@@H](CCCNC(=N)N)C(=O)N[C@@H](CCCNC(=N)N)C(=O)N[C@@H](Cc1c[nH]cn1)C(=O)N[C@@H](CO)C(=O)N[C@@H]1CCCCNC(=O)[C@H](CC(=O)O)NC(=O)[C@@H]2CCCN2C(=O)[C@H](CCN)NC(=O)[C@H]2CCCN2C1=O [pCAP-724, str-RRHSkp(Dab)PD-Cyc] (Stearoyl-RRHS[dK][dP][Dab]PD; lactam 5-C) yielded an IC50 ([1]; 48 h) of 250 nM, an IC50 ([2]; 48 h) of 1020 nM and an IC50 ([3]; 48 h) of 650 nM. The IC50 ([4]; 48 h) was 32000 nM, the “activity in viability assays compared with other peptides (in words)” value [5] was “modest increase in activity compared with pCAP-713” and the IC50 ([5]; 48 h) was 100 to 1000 nM. The “estimated steady state concentration in the blood” value ([6]; continuous long-acting administration of 20 mg/kg/day) was 7 to 10 µM, the half-life ([6]; mouse, in vivo, sc, 5 mg/kg, administered subcutaneously into mice, read-out: half-life (T1/2) (converted)) was roughly 10 h and the Tmax ([6]; mouse, plasma, sc, 5 mg/kg, administered subcutaneously into mice, read-out: time of maximal plasma concentration) was 2 h. For the same compound, the “decrease in tumor signal (IVIS)” value ([7]; Alzet mini pumps 20 mg/Kg/Day SC continuous, within 14 days) was 5 fold and the “tumor growth, average IVIS signal (in words)” value [7] was “slowed down tumor growth for the first 10 days”.

Work on CCCCCCCCCCCCCCCCCC(=O)N[C@@H](CC(=O)O)C(=O)N1CCC[C@H]1C(=O)N[C@@H](Cc1c[nH]cn1)C(=O)N[C@H]1CCCCNC(=O)[C@H](CCCNC(=N)N)NC(=O)[C@H](CCN)NC(=O)[C@H](CCCNC(=N)N)NC(=O)[C@@H]2CCCN2C(=O)[C@H](CO)NC1=O [pCAP-725, str-DPHKSPR(Dab)R-Cyc, reference compound] (Stearoyl-DPHKSPR[Dab]R; lactam 4-C) yielded an IC50 ([1]; 48 h) greater than 30000 nM, an IC50 ([2]; 48 h) greater than 40000 nM and an IC50 ([3]; 48 h) greater than 30000 nM. For the same compound, the IC50 ([4]; 48 h) was greater than 40000 nM.

With “str-RRHSv(Dmp)(Dab)PD-NH2 (Stearoyl-RRHS[dV][Dmp][Dab]PD-NH2) [pCAP-716, Dmp—Di-methyl proline]” the IC50 ([8]; FIG. 19, read-out: RXF IC50) was 420 nM, the IC50 ([8]; FIG. 20, read-out: RXF 393 IC50) was 300 nM and the IC50 ([1]; FIG. 20, read-out: MIAPaca IC50) was 300 nM. The IC50 ([2]; FIG. 19, read-out: PANCI IC50) was 2000 nM, the IC50 ([9]; FIG. 19, read-out: PC9 IC50) was 630 nM and the IC50 ([9]; FIG. 20, read-out: PC9 IC50) was 700 nM. The IC50 ([3]; FIG. 20, read-out: SW-480 IC50) was 1000 nM, the IC50 ([4]; FIG. 19, read-out: WI38 IC50) was 33000 nM and the “activity in viability assays compared with other peptides (in words)” value [5] was “consistently modestly improved activity over pCAP-674”. The “activity in viability assays compared with other peptides (in words)” value ([5]; listed as 716) was “highest activity”.

Work on CCCCCCCCCCCCCCCCCC(=O)N[C@@H](CCCNC(=N)N)C(=O)N[C@@H](CCCNC(=N)N)C(=O)N[C@@H](Cc1c[nH]cn1)C(=O)N[C@@H](CO)C(=O)N[C@@H](C(=O)N1CCC[C@H]1C(=O)N[C@@H](CCN)C(=O)N1CCC[C@H]1C(=O)N[C@@H](CC(=O)O)C(N)=O)C(C)C [pCAP-717, str-RRHSvP(Dab)PD-NH2] (Stearoyl-RRHS[dV]P[Dab]PD-NH2) yielded an IC50 ([1]; 48 h) of 300 nM, an IC50 ([2]; 48 h) of 2150 nM and an IC50 ([3]; 48 h) of 1200 nM. The IC50 ([4]; 48 h) was 35000 nM.

In the case of CCCCCCCCCCCCCCCCCC(=O)N[C@@H](CC(=O)O)C(=O)N1CCC[C@H]1C(=O)N[C@@H](Cc1c[nH]cn1)C(=O)N[C@@H](C(=O)N[C@@H](CO)C(=O)N1CCC[C@H]1C(=O)N[C@@H](CCCNC(=N)N)C(=O)N[C@@H](CCN)C(=O)N[C@@H](CCCNC(=N)N)C(N)=O)C(C)C [pCAP-722, str-DPHvSPR(Dab)R-NH2, reference compound] (Stearoyl-DPH[dV]SPR[Dab]R-NH2), the IC50 ([8]; 48 h) is reported as greater than 40000 nM, the IC50 ([2]; 48 h) is reported as greater than 40000 nM and the IC50 ([9]; 48 h) is reported as greater than 40000 nM. The IC50 ([4]; 48 h) was greater than 40000 nM and the “tumor growth, average IVIS signal (in words)” value [7] was “continued its exponential growth”.

For CCCCCCCCCCCCCC(=O)N[C@@H](CCCNC(=N)N)C(=O)N[C@@H](CCCNC(=N)N)C(=O)N[C@@H](Cc1c[nH]cn1)C(=O)N[C@@H](CO)C(=O)N[C@@H](C(=O)N1CCC[C@H]1C(=O)N[C@@H](CCN)C(=O)N1CCC[C@H]1C(=O)N[C@@H](CC(=O)O)C(=O)O)C(C)C [pCAP-553, myr-RRHSvP(L-Dab)PD] (Myristoyl-RRHS[dV]P[Dab]PD-OH; C-terminus assumed), the IC50 ([1]; 48 h) was 1200 nM, the IC50 ([2]; 48 h) was 2100 nM and the IC50 ([4]; 48 h) was greater than 40000 nM. For the same compound, the “activity in viability assays compared with other peptides (in words)” value [5] was “improved efficacy relatively to pCAP-250” and the “solubility (in words)” value [10] was “better solubility at physiological pH”.
